Here are results for 1 compound from patent US20170043031A1, “IGF-1R ANTIBODY-DRUG-CONJUGATE AND ITS USE FOR THE TREATMENT OF CANCER” (PIERRE FABRE MEDICAMENT, priority 2014, published 2017).

The assay deals with lysosome functions. The assay can be described thus: Inhibition of Abs degradation using lysosome inhibitor. The assay is classed as cell-based. The following applies: 10 μg/ml of Ab, 2 h at 37° C. On the procedure: In order to confirm that antibodies reached the lysosome were they are degraded, cells were treated or not with bafilomycine A1, a potent inhibitor of lysosome functions. Cells were then incubated with 10 μg/ml of Ab to be tested at 4° C., washed and incubated for 2 h at 37° C. The internalized Ab was detected after cell permeabilisation using a secondary anti-mouse IgG-Alexa 488 Ab.

Each structure is given as a SMILES string.

On to `CO/C1=C\C(C)=C\[C@@H](C)[C@@H](O)[C@@H](C)C/C(C)=C/C=C/[C@H](OC)[C@@H]([C@@H](C)[C@@H](O)[C@H](C)[C@@]2(O)C[C@@H](O)[C@H](C)[C@@H](C(C)C)O2)OC1=O` [bafilomycine A1], for which the “degradation of intracellular Ab” value is “prevented the degradation of intracellular Ab”.
